The source of these data is patent publication US9981960B2, “Pyrrolidine compound and application as melanocortin receptor agonist” (MITSUBISHI TANABE PHARMA CORPORATION, priority 2014, dated 2018).

Each structure is given as a SMILES string.

For assay [1], the target named is human MC4R (Homo sapiens, UniProt P32245). Nature of the assay: human MC4R agonist activity. Type of assay: cell-based.
For assay [2], the target named is T1, Human MC1R (Homo sapiens, UniProt Q01726).
T1 construct: endogenous in cells; host or cells: human melanoma cell line HBL
T1 sequence (Q01726 whole entry): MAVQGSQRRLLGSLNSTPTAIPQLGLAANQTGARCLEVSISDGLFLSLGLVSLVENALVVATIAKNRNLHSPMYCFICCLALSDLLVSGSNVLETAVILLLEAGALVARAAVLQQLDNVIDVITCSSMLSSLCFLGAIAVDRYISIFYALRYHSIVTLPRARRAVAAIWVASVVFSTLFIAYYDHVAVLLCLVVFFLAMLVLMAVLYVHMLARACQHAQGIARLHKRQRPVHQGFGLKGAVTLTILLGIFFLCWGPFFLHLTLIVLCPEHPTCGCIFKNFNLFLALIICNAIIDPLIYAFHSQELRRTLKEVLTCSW
Briefly: MCR agonist measurement (cAMP measurement), human MC1R agonist activity in human melanoma cell line HBL. Type of assay: cell-based. Particulars: HBL cells; for EC50: 37° C. for 30 minutes, intracellular cAMP by fluorescence method; for Human MC1R IA %: Intrinsic Activity, vehicle cAMP = 0%, αMSH at 10^-6 M = 100%.

Chain of human MC4R (P32245 whole entry): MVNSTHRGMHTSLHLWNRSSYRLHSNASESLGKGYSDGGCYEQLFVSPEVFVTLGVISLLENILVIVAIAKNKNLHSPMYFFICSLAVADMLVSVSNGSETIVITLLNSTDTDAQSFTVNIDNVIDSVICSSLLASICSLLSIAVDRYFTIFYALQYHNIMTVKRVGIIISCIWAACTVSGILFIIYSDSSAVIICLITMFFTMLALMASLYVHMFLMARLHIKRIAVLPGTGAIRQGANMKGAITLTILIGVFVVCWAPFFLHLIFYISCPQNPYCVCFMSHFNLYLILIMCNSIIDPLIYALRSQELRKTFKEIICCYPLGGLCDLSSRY

In general, EC50 refers to the midpoint of the concentration-response curve. A high value points to a less potent agent. On to `COC[C@@H]1C[C@@H](c2ccc(F)cc2N2CCC(C(=O)O)CC2)CN1C(=O)[C@]1(F)CN([C@H]2CC[C@H](OC)CC2)C[C@H]1c1ccc(OC)cc1.Cl.Cl` [Example 147, 1-{5-fluoro-2-[(3S,5S)-1-{[(3R,4R)-3-fluoro-1-(trans-4-methoxycyclohexyl)-4-(4-methoxyphenyl)pyrrolidin-3-yl]carbonyl}-5-(methoxymethyl)pyrrolidin-3-yl]phenyl}piperidine-4-carboxylic acid dihydrochloride], for which the EC50 in assay [1] was 341 nM; in assay [2], 1.7 nM. Moreover, in assay [2], the “Human MC1R IA %” value stood at 102%.
In the case of `CCO[C@H]1CC[C@H](N2C[C@@H](c3ccc(OC)cc3)[C@](OC)(C(=O)N3C[C@H](c4ccc(C(F)(F)F)cc4N4CCC(C(=O)O)CC4)C[C@H]3COC)C2)CC1` [Example 146], in assay [2], a half-maximal response (EC50) required 0.75 nM and the “Human MC1R IA %” value is reported as 118%.
